Assay results from US20120295907A1, “INSECTICIDAL COMPOUNDS” (SYNGENTA CROP PROTECTION, LLC, priority 2009, published 2012).

Assays:
Type in all cases: in vivo
Heliothis virescens = Heliothis virescens (Tobacco Budworm) egg test on artificial diet; conditions: 96 h, 200 ppm (concentration in well 18 ppm), eggs 0-24 h old on artificial diet, 4 days, egg mortality, larval mortality, growth regulation
Plutella xylostella = Plutella xylostella (Diamond Back Moth) artificial diet MTP test; conditions: 144 h, 200 ppm (concentration in well 18 ppm), L2 larvae, 6 days, larval mortality, growth regulation
Diabrotica balteata = Diabrotica balteata (Corn Root Worm) artificial diet MTP test; conditions: 120 h, 200 ppm (concentration in well 18 ppm), L2 larvae, 5 days, larval mortality, growth regulation
Thrips tabaci = Thrips tabaci (Onion Thrips) sunflower leaf disc spray test; conditions: foliar, 168 h, 200 ppm spray on sunflower leaf discs, population of mixed ages, 7 days, mortality
Myzus persicae = Myzus persicae (Green Peach Aphid) sunflower leaf disc spray test; conditions: foliar, 144 h, 200 ppm spray on sunflower leaf discs, aphid population of mixed ages, 6 DAT, mortality
Spodoptera littoralis = Spodoptera littoralis (Egyptian Cotton Leafworm) cotton leaf disc spray test; conditions: foliar, 72 h, 200 ppm spray on cotton leaf discs, L1 larvae, mortality, feeding behavior, growth regulation 3 DAT
Tetranychus urticae = Tetranychus urticae (Two-Spotted Spider Mite) bean leaf disc spray test; conditions: foliar, 192 h, 200 ppm spray on bean leaf discs, mite populations of mixed ages, 8 days, egg, larval and adult mortality, read-out: control of Tetranychus urticae

Measured: pest or weed control at 200 ppm

COCc1cc(C(F)(C(F)(F)F)C(F)(F)C(F)(F)F)cc(Cl)c1NC(=O)c1cccc(NC(=O)c2ccc(F)cc2Cl)c1OC (stereo not drawn) [H25]
not listed: Spodoptera littoralis | Tetranychus urticae
≥ 80%: all other assays above

COc1c(NC(=O)c2ccccc2)cccc1C(=O)Nc1c(Cl)cc(C(F)(C(F)(F)F)C(F)(F)F)cc1Cl [E16]
not listed: Tetranychus urticae
≥ 80%: all other assays above

COc1c(NC(=O)c2ccc(F)cc2Cl)cccc1C(=O)Nc1c(Cl)cc(C(F)(C(F)(F)F)C(F)(F)C(F)(F)F)cc1Br (stereo not drawn) [B2, N-[2-bromo-6-chloro-4-(1,2,2,3,3,3-hexafluoro-1-trifluoromethylpropyl)phenyl]-3-(4-fluoro-2-chlorobenzoylamino)-2-methoxybenzamide]
not listed: Diabrotica balteata | Thrips tabaci
≥ 80%: all other assays above

COc1c(NC(=O)c2cccc(F)c2F)cccc1C(=O)Nc1c(Cl)cc(C(F)(C(F)(F)F)C(F)(F)F)cc1Cl [E21]
not listed: Tetranychus urticae
≥ 80%: all other assays above

COc1cc(C(=O)Nc2cccc(C(=O)Nc3c(Cl)cc(C(F)(C(F)(F)F)C(F)(F)C(F)(F)F)cc3Br)c2OC)on1 (stereo not drawn) [B89]
not listed: Tetranychus urticae
≥ 80%: all other assays above

COc1c(NC(=O)c2cccs2)cccc1C(=O)Nc1c(Cl)cc(C(F)(C(F)(F)F)C(F)(F)C(F)(F)F)cc1Br (stereo not drawn) [B44]
not listed: Tetranychus urticae
≥ 80%: all other assays above

COCc1cc(C(F)(C(F)(F)F)C(F)(F)C(F)(F)F)cc(Br)c1NC(=O)c1cccc(NC(=O)c2ccc(F)cc2Cl)c1OC (stereo not drawn) [I25]
not listed: Spodoptera littoralis | Tetranychus urticae
≥ 80%: all other assays above

COc1c(NC(=O)c2ccsc2)cccc1C(=O)Nc1c(Cl)cc(C(F)(C(F)(F)F)C(F)(F)C(F)(F)F)cc1Br (stereo not drawn) [B124]
not listed: Diabrotica balteata | Tetranychus urticae
≥ 80%: all other assays above

COc1c(NC(=O)c2ccc(F)cc2Cl)cccc1C(=O)Nc1c(Cl)cc(C(F)(C(F)(F)F)C(F)(F)C(F)(F)F)cc1Cl (stereo not drawn) [C1, N-[2,6-dichloro-4-(1,2,2,3,3,3-hexafluoro-1-trifluoromethylpropyl)phenyl]-3-(4-fluoro-2-chlorobenzoylamino)-2-methoxybenzamide]
not listed: Tetranychus urticae
≥ 80%: all other assays above

COc1c(NC(=O)c2cccnc2)cccc1C(=O)Nc1c(Cl)cc(C(F)(C(F)(F)F)C(F)(F)C(F)(F)F)cc1Br (stereo not drawn) [B37]
not listed: Heliothis virescens | Tetranychus urticae
≥ 80%: all other assays above

COCc1cc(C(F)(C(F)(F)F)C(F)(F)C(F)(F)F)cc(Cl)c1NC(=O)c1cccc(NC(=O)c2ccc(C#N)cc2C)c1OC (stereo not drawn) [H1]
≥ 80%: Heliothis virescens | Plutella xylostella | Myzus persicae

COc1c(NC(=O)c2ccccc2)cccc1C(=O)Nc1c(Cl)cc(C(F)(C(F)(F)F)C(F)(F)C(F)(F)F)cc1Cl (stereo not drawn) [C18]
not listed: Diabrotica balteata | Tetranychus urticae
≥ 80%: all other assays above

COc1c(NC(=O)c2ccc(OC(F)(F)F)cc2)cccc1C(=O)Nc1c(Cl)cc(C(F)(C(F)(F)F)C(F)(F)F)cc1Cl [E11]
not listed: Tetranychus urticae
≥ 80%: all other assays above

COc1c(NC(=O)c2ccc(C)s2)cccc1C(=O)Nc1c(Cl)cc(C(F)(C(F)(F)F)C(F)(F)C(F)(F)F)cc1Br (stereo not drawn) [B137]
not listed: Tetranychus urticae
≥ 80%: all other assays above

COc1c(NC(=O)c2cccnc2SC)cccc1C(=O)Nc1c(Cl)cc(C(F)(C(F)(F)F)C(F)(F)C(F)(F)F)cc1Br (stereo not drawn) [B45]
not listed: Tetranychus urticae
≥ 80%: all other assays above

COc1c(NC(=O)c2cc(Cl)nc(Cl)c2)cccc1C(=O)Nc1c(Cl)cc(C(F)(C(F)(F)F)C(F)(F)C(F)(F)F)cc1Br (stereo not drawn) [B97]
not listed: Myzus persicae
≥ 80%: all other assays above

COCc1cc(C(F)(C(F)(F)F)C(F)(F)C(F)(F)F)cc(Br)c1NC(=O)c1cccc(NC(=O)c2c(F)cc(F)cc2F)c1OC (stereo not drawn) [I2]
not listed: Spodoptera littoralis | Tetranychus urticae
≥ 80%: all other assays above

COc1c(NC(=O)c2ccccc2C(F)(F)F)cccc1C(=O)Nc1c(Cl)cc(C(F)(C(F)(F)F)C(F)(F)C(F)(F)F)cc1Cl (stereo not drawn) [C20]
not listed: Myzus persicae
≥ 80%: all other assays above

COc1c(NC(=O)c2ccc(C)cc2)cccc1C(=O)Nc1c(Cl)cc(C(F)(C(F)(F)F)C(F)(F)F)cc1Cl [E6]
not listed: Tetranychus urticae
≥ 80%: all other assays above

COc1c(NC(=O)c2snnc2C)cccc1C(=O)Nc1c(Cl)cc(C(F)(C(F)(F)F)C(F)(F)C(F)(F)F)cc1Br (stereo not drawn) [B21]
not listed: Myzus persicae
≥ 80%: all other assays above

COc1c(NC(=O)c2ccccc2C)cccc1C(=O)Nc1c(Cl)cc(C(F)(C(F)(F)F)C(F)(F)F)cc1Cl [E2]
not listed: Plutella xylostella | Tetranychus urticae
≥ 80%: all other assays above

COc1c(NC(=O)c2ccccc2F)cccc1C(=O)Nc1c(Cl)cc(C(F)(C(F)(F)F)C(F)(F)F)cc1Cl [E1]
not listed: Plutella xylostella | Tetranychus urticae
≥ 80%: all other assays above
